According to patent publication US20130005573A1, “COMPOSITIONS AND METHODS OF USE FOR KETONES AND ALDEHYDES AS HERBICIDES” (North Carolina State University, priority 2010, published 2013):

Legend:
bean plants = test: Herbicidal spray treatment on bean plants; assay type: in vivo; details: 20% solution (wt/vol) in absolute ethanol, sprayed to run off
Procedure: Experiment 3 exemplifies the herbicidal activity of 2-undecanone on bean plants. The bean plant on the left in FIG. 3 was treated with a 20% solution (wt/vol) of 2-undecanone in a carrier comprising absolute ethanol. The bean plant on the right was treated with the absolute ethanol carrier only. Treatments were made by spraying each plant until “run off” levels were achieved. […] In contrast, the plant on the right (ethanol control) never differed in appearance from the no-spray controls (not shown). […] All treatments of the bean plants described above were performed in North Carolina during the summer months under a shelter; the bean plants were protected from the elements but were watered regularly. The plants also received direct sunlight for about 8 hours from approximately noon until sunset.

Tomato seedlings = test: Greenhouse fine mist foliar spray on tomato seedlings; assay type: in vivo
Procedure: (§1) This experiment was conducted in a greenhouse setting. Tomato seedlings in 4 to 6 true-leaf stage and 3-5 inch tall potato plants were treated with a fine mist spray comprising a solution of >2% 2-undecanone in 95% ethanol.

potato plants = test: Greenhouse fine mist foliar spray on potato plants; assay type: in vivo; details: >2% in 95% ethanol
Procedure: as §1

wild henbit = test: Herbicidal spray treatment on henbit under winter field conditions; assay type: in vivo, henbit (Lamium amplexicaule)
Procedure: FIG. 1 is an image showing results of tests used to determine the herbicidal activity of a spray treatment comprising the use of a 5% solution of 2-undecanone in ethanol. The image was captured approximately 2 hours after the spray-applications of materials to henbit under winter field conditions. Both of the weed groups shown in FIG. 1 are groups of wild henbit. Treatment of the group of henbit plants on the left side of FIG. 1 (control group) consisted of spraying the group with 100 ml of the carrier as a fine mist; the carrier comprised absolute ethanol (without the herbicide). Treatment of the group of henbit plants on the right side of FIG. 1 (treatment group) consisted of spraying the group with 100 ml of the herbicide/carrier mixture (5 wt % of 2-undecanone/100 mL solution) as a fine mist. The image was captured 2 hours after treatment.
Because the sprayer produced a very fine mist in each case, and there may have been spray drift (from the wind) during these treatments, evaporation and dissipation of these misty sprays occurred to some degree before and while each spray hit its targeted group of plant material.
Experiment 2 is similar to Experiment 1, in that it tests the herbicidal activity of an experimental spray treatment on henbit. The herbicidal spray treatments of Experiment 2 comprised the use of a 20% solution of 2-undecanone in ethanol (20 wt % of 2-undecanone/100 mL solution). The experimental results are featured in FIGS. 2A, 2B and 2C, the henbit treatment group receiving the 2-undecanone spray treatment is located on the right side of the image shown in FIG. 2A. The control group was treated with a spray comprising just the carrier (absolute ethanol); the henbit treatment group receiving this carrier-only spray treatment (control group) is located on the left side of the image shown in FIG. 2A. The image was captured 4 days after the spray-applications of these materials to the groups of henbit under winter field conditions. […]

wild-type grass = test: Spray treatment of test plots of wild-type grass; assay type: in vivo, grass (monocotyledon)
Procedure: Two experiments were initiated that tested the activity of an acyclic ketone on a common monocotyledon. The test plots comprised similar areas of wild-type grass. The area of each test plot of grass was defined to be the area within a square measuring approximately 15 inches on a side. The experiments were conducted using two different formulations of the same test material: the formulation tested in Experiment 6 comprised a 5% (wt/vol) mixture of undecanone in absolute ethanol; the formulation tested in Experiment 7 comprised a 5% (wt/vol) mixture of undecanone in water.
A measured amount of each formulation was sprayed onto its appropriate test area using a hand held spray bottle; the spray bottle produced a fine mist in each case. […] The details of each experiment are provided separately below.
In Experiment 6, 40 ml of a 5% formulation of the test material in ethanol (wt/vol) was evenly sprayed on one of two adjacent test plots of grass. This treated plot was located on the right side of the test plot pair. The adjacent test plot (left; control plot) was sprayed in an identical fashion with a spray bottle containing 40 mL of the ethanol carrier as a control; the time difference for completing the spraying of the two grassy test plots was less than 2 minutes. The effects of the spray formulations on the test plots were noted over time and images were captured at several time points for later comparisons (see FIGS. 5A, 5B and 5C for images). FIGS. 5A, 5B and 5C are images showing the effects of spraying a 5% formulation of the test material in ethanol and ethanol control on test plots of grass in accordance with embodiments of the present disclosure.
Visible differences were observed within a 30 minute period following the spray applications of control and test compound formulations comprising ethanol. […] The appearance of the plots at the one-hour time point are shown in the FIG. 5B image, and the appearance of the plots at the twenty four-hour time point are shown in the FIG. 5C image.
The conditions and amounts of materials used in Experiment 7 were similar to those employed in Experiment 6, with the exception that both the formulation comprising the active ingredient and the solution of carrier comprised water in the place of ethanol. In Experiment 7, the early toxicity effects were delayed compared to the early toxicity effects noted in Experiment 6. […] The appearance of the areas treated with the formulation comprising water were photographed at the 24 hour time point and can be seen in the image of FIG. 6B.

CCCCCCCCCC(C)=O [2-undecanone]
leaf color of treated bean plant (bean plants; 2 weeks after treatment): yellow | onset of change in appearance of treated bean plant (bean plants; day of treatment): started to change its appearance and character shortly after the spray treatment was complete | subsequent outcome after foliage death (Tomato seedlings; >2% in 95% ethanol, fine mist to foliage): plant death | time to death of the plants' foliage (Tomato seedlings; >2% in 95% ethanol, fine mist to foliage, seedlings in 4 to 6 true-leaf stage): ≤ 24 h | effect on tomato plants at low concentration (Tomato seedlings; less than 1% in 95% ethanol, similar application): death of foliage followed by re-foliation some days later | time to death of the plants' foliage (potato plants; 3-5 inch tall plants): ≤ 24 h | subsequent outcome after foliage death (potato plants; fine mist to foliage): plant death | changes in color and vitality of treated henbit plants (wild henbit; 5% solution in ethanol, 100 ml fine mist, below run-off, approximately 2 hours after treatment): had lost much of their green color and vitality, and had turned yellow | overall state of treated henbit group versus control (wild henbit; 20% (wt/vol) in absolute ethanol, 100 ml spray, 4 days after treatment): appeared to be dead or dying | effect on stems of treated henbit plants (wild henbit; 20% (wt/vol) in absolute ethanol, 100 ml spray, below run-off, 4 days after treatment): had become significantly weakened and had become flaccid | course of herbicidal toxicity over time (wild-type grass; Experiment 6: 5% (wt/vol) in ethanol, up to 24 hours): increase with time | time to visible differences versus control plot (wild-type grass; Experiment 6: 40 ml of 5% (wt/vol) in ethanol): ≤ 30 min | appearance of treated grass (wild-type grass; Experiment 6: 40 ml of 5% (wt/vol) in ethanol, after 30 minutes): appeared brown | time to first toxicity effects after spraying (wild-type grass; Experiment 7: 5% (wt/vol) in water): 2 to 3 h | visual appearance of water-carrier plots compared with ethanol-carrier plots (wild-type grass; Experiment 7: 5% (wt/vol) in water, at 24 hours): similar
